Data: publication PMC3013012 (The Journal of Biological Chemistry, 2010)
Square brackets hold non-standard residues; d marks the D form. Peptide text beside a SMILES is read from it. Lys(Me3) = C[N+](C)(C)CCCC[C@H](N)C(=O)O; Lys(Me2) = CN(C)CCCC[C@H](N)C(=O)O

Experiments:
[1] = target: T1, human Cbx7 chromodomain (Homo sapiens, UniProt O95931); assay: Fluorescence polarization peptide binding
T1 sequence (O95931 8-62): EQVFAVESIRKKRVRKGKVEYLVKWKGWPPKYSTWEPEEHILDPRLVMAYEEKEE

[2] = target: T2, human Cbx8 chromodomain (Homo sapiens, UniProt Q9HC52); assay: Fluorescence polarization peptide binding
T2 sequence (Q9HC52 8-61): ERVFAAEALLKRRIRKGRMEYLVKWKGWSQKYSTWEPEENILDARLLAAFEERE

Compound	Kd [1] [µM]	Kd [2] [µM]
CC[C@H](C)[C@H](NC(=O)CNC(=O)[C@H](Cc1c[nH]cn1)NC(=O)[C@@H](NC(=O)[C@H](CO)NC(=O)[C@H](CCCCN(C)C)NC(=O)[C@H](CC(C)C)NC(=O)[C@H](C)NC(=O)[C@H](Cc1ccccc1)NC(=O)CNC(=O)[C@H](CCCNC(=N)N)NC(=O)[C@@H](NC(=O)[C@H](CO)NC(=O)[C@H](CCCCN(C)C)NC(=O)[C@@H](NC(=O)[C@H](C)NC(=O)[C@@H](NC(=O)[C@H](CCC(N)=O)NC(=O)[C@@H](N)CCCNC(=N)N)C(C)C)C(C)C)[C@@H](C)O)[C@@H](C)O)C(=O)N[C@@H](C)C(=O)N[C@H](C(=O)N[C@@H](CCCCN(C)C)C(=O)N[C@@H](CO)C(=O)N[C@H](C(=O)N[C@@H](CC(N)=O)C(=O)O)[C@@H](C)O)[C@@H](C)CC [Kme2(1162,1170,1178)] (H-RQVAV[Lys(Me2)]STRGFAL[Lys(Me2)]STHGIAI[Lys(Me2)]STN-OH)	15 ± 0.5	180 ± 80
CC[C@H](C)[C@H](NC(=O)CNC(=O)[C@H](Cc1c[nH]cn1)NC(=O)[C@@H](NC(=O)[C@H](CO)NC(=O)[C@H](CCCC[N+](C)(C)C)NC(=O)[C@H](CC(C)C)NC(=O)[C@H](C)NC(=O)[C@H](Cc1ccccc1)NC(=O)CNC(=O)[C@H](CCCNC(=N)N)NC(=O)[C@@H](NC(=O)[C@H](CO)NC(=O)[C@H](CCCC[N+](C)(C)C)NC(=O)[C@@H](NC(=O)[C@H](C)NC(=O)[C@@H](NC(=O)[C@H](CCC(N)=O)NC(=O)[C@@H](N)CCCNC(=N)N)C(C)C)C(C)C)[C@@H](C)O)[C@@H](C)O)C(=O)N[C@@H](C)C(=O)N[C@H](C(=O)N[C@@H](CCCC[N+](C)(C)C)C(=O)N[C@@H](CO)C(=O)N[C@H](C(=O)N[C@@H](CC(N)=O)C(=O)O)[C@@H](C)O)[C@@H](C)CC [Kme3(1162,1170,1178)] (H-RQVAV[Lys(Me3)]STRGFAL[Lys(Me3)]STHGIAI[Lys(Me3)]STN-OH)	1.2 ± 0.2	6 ± 2
CC[C@H](C)[C@H](NC(=O)CNC(=O)[C@@H](N)Cc1c[nH]cn1)C(=O)N[C@@H](C)C(=O)N[C@H](C(=O)N[C@@H](CCCC[N+](C)(C)C)C(=O)N[C@@H](CO)C(=O)N[C@H](C(=O)N[C@@H](CC(N)=O)C(=O)O)[C@@H](C)O)[C@@H](C)CC [IAIK(1178)S] (H-HGIAI[Lys(Me3)]STN-OH)	5 ± 0.8	
